Test results from US20080213275A1, “USE OF MTKI 1 FOR TREATING OR PREVENTING BONE CANCER” (priority 2006, published 2008).

Tests used:
[1] = test system: NCTC2472 fibrosarcoma or MDA-MB231 breast cancer cells injected into bone; test: Spontaneous paw lifting behaviour (pain) in bone cancer model; assay type: in vivo, mice; conditions: day 14 post tumor cell inoculation; dosed at MTD by oral gavage once daily; 4 minutes observation; vehicle 80%
Method: Male C3H/HeNCrl mice for the NCTC2472 mouse fibrosarcoma cells (20-25 g, Charles River, Sulzfeld, Germany) or female NMRI Nude mice for the MDA MB 231 human breast cancer cells (Janvier, France) were used. Induction of bone cancer was carried out as previously described (Schwei et al., 1999^1). Induction of general anaesthesia was performed under 4% isoflurane in a mixture of 30% O2 and 70% air (1000 ml/ min). Anaesthesia was then maintained at 2.5% isoflurane for the duration of the surgical procedure. The left hind paw was shaved and disinfected with povidone-iodine followed by 70% ethanol. A superficial 1 cm incision was made over the knee overlaying the patella. The patella ligament was cut, exposing the condyles of the distal femur. A 23-gauge needle was inserted at the level of the intercondylar notch and the intramedullary canal of the femur to create a cavity for injection of the cells. Tumour cells (2.5×10^6 cells/20 μl) were then injected into the bone cavity using a 0.3 ml syringe. To prevent leakage of cells outside the bone, the injection site was sealed with dental acrylic (Paladur, Heraeus Kulzer, GmbH, Wehrheim, Germany) and the wound closed with skin stitches. For the sham-operated group, an identical procedure was followed except that medium without cells was injected. […]

[2] = test system: NCTC2472 fibrosarcoma or MDA-MB231 breast cancer cells injected into bone; test: Evaluation of bone destruction by μCT of ipsilateral left hind limbs; assay type: in vivo, mice; conditions: tumor inoculated animals, dosed at MTD; compared with vehicle and sham
Method: (§1) Male C3H/HeNCrl mice for the NCTC2472 mouse fibrosarcoma cells (20-25 g, Charles River, Sulzfeld, Germany) or female NMRI Nude mice for the MDA MB 231 human breast cancer cells (Janvier, France) were used. Induction of bone cancer was carried out as previously described (Schwei et al., 1999^1). Induction of general anaesthesia was performed under 4% isoflurane in a mixture of 30% O2 and 70% air (1000 ml/ min). Anaesthesia was then maintained at 2.5% isoflurane for the duration of the surgical procedure. The left hind paw was shaved and disinfected with povidone-iodine followed by 70% ethanol. A superficial 1 cm incision was made over the knee overlaying the patella. The patella ligament was cut, exposing the condyles of the distal femur. A 23-gauge needle was inserted at the level of the intercondylar notch and the intramedullary canal of the femur to create a cavity for injection of the cells. Tumour cells (2.5×10^6 cells/20 μl) were then injected into the bone cavity using a 0.3 ml syringe. To prevent leakage of cells outside the bone, the injection site was sealed with dental acrylic (Paladur, Heraeus Kulzer, GmbH, Wehrheim, Germany) and the wound closed with skin stitches. For the sham-operated group, an identical procedure was followed except that medium without cells was injected.

[3] = test system: MDA B231 bone homing clone cells; test: Bone cancer metastasis model, histological sections after 42 days; assay type: in vivo, mice; conditions: po, qd
Method: as §1
In the bone cancer metastasis model MDA B231 bone homing clone cells were inoculated into the tibia as described. After 42 days, animals were sacrificed and the amputated paws placed in fixative. The legs were de-calcified and sections cut to determine levels of bone destruction.

[4] = Tissue distribution profile; assay type: in vivo
[5] = oral gavage, once daily

| SMILES | percentage of the time the left hind paw was raised (spontaneous paw lifting) [1] | osteolytic bone destruction (μCt reconstructions, FIG. 2) [2] | detectable tumor in histological sections (FIG. 3) ([3]; 100 mg per kg) | signs of tumor cells and bone destruction ([3]; 100 mg per kg) | amount of tumor growth and amount of bone destruction ([3]; dose dependence) | tissue distribution to bone marrow ([4]; in vivo) | blood brain barrier penetration ([4]; intact blood brain barrier) | maximum tolerated dose (MTD) [5] [mg per kg] |
| --- | --- | --- | --- | --- | --- | --- | --- | --- |
| COc1cc2ncnc3c2cc1OCCCCCN(C)Cc1ccc(Br)cc1N3 [Compound 1, 4,6-ethanediylidenepyrimido[4,5-b][6,1,12]benzoxadiazacyclo-pentadecine, 17-bromo-8,9,10,11,12,13,14,19-octahydro-20-methoxy-13-methyl] | ~8% | significantly less bone destruction | detectable tumor is hardly present | no signs of tumor cell not any signs bone destruction | dose dependently reduced | preferential tissue distribution to the bone marrow compartment | ability to cross the intact blood brain barrier | 200 |
| COc1cc2ncnc(Nc3ccc(F)c(Cl)c3)c2cc1OCCCN1CCOCC1 [Iressa, reference compound] | more than 35% | Considerable bone loss |  |  |  |  |  | 50 |
